Reference: patent US8772498B2, “Alkylamine-substituted dicyanopyridine and amino acid ester prodrugs thereof” (Bayer Intellectual Property GmbH, priority 2009, dated 2014)
Structures can show the parent of a compound that is named as a salt.

Columns and labels:
[1] = test system: spontaneously hypertensive rats; experiment: Measurement of blood pressure and heart rate on awake rats (telemetry); assay type: in vivo; conditions: maximum reduction in heart rate, oral administration of 3 mg/kg, awake SH rats
Experimental: B-5. Measurement of Blood Pressure and Heart Rate
Awake spontaneously hypertensive rats (SH-Ratten) carrying an internal transmitter capable of measuring permanently both blood pressure and heart rate (telemetric monitoring of hemodynamic parameters) and sitting in a cage fitted with motion sensors are orally administered test substances in various dosages. Blood pressure and heart rate and changes thereof, and also the movements and the activity of the animals are then recorded and evaluated for 24 hours.

[2] = Determination of the solubility in 5% strength aqueous dextrose solution; assay type: physicochemical; conditions: saline or isotonic, thermodynamic from solid, room temperature, 24 h
Experimental: B-8. Determination of Solubility, Stability and Liberation Behavior a) Determination of the Solubility:
The test substance is suspended in 5% strength aqueous dextrose solution. This suspension is shaken at room temperature for 24 h. After ultracentrifugation at 224 000 g for 30 min, the supernatant is diluted with DMSO and analyzed by HPLC. A two-point calibration plot of the test compound in DMSO is used for quantification.
Agilent 1100 with DAD (G1315A), quat. pump (G1311A), autosampler CTC HTS PAL, degasser (G1322A) and column thermostat (G1316A); column: Phenomenex Gemini C18, 5 μm, 50 mm×2 mm; temperature: 40° C.; eluent A: water/phosphoric acid pH 2; eluent B: acetonitrile; flow rate: 0.7 ml/min; gradient: 0-0.5 min 85% A, 15% B; ramp: 0.5-3 min 10% A, 90% B; 3-3.5 min 10% A, 90% B; ramp: 3.5-4 min 85% A, 15% B; 4-5 min 85% A, 15% B.
Agilent 1100 with DAD (G1315A), quat. pump (G1311A), autosampler CTC HTS PAL, degasser (G1322A) and column thermostat (G1316A); column: VDSoptilab Kromasil 100 C18, 3.5 μm, 60 mm×2.1 mm; temperature: 30° C.; eluent A: water+5 ml perchloric acid/I; eluent B: acetonitrile; flow rate: 0.75 ml/min; gradient: 0-0.5 min 98% A, 2% B; ramp: 0.5-4.5 min 10% A, 90% B; 4.5-6 min 10% A, 90% B; ramp: 6.5-6.7 min 98% A, 2% B; 6.7-7.5 min 98% A, 2% B.

[3] = Stability in buffer at various pH values; assay type: physicochemical
Experimental: b) Stability in Buffer at Various pH Values:
0.3 mg of the test substance is weighed into a 2 ml HPLC vial and 0.5 ml of acetonitrile or acetonitrile/DMSO (9:1) is added. The substance is dissolved by putting the sample vessel in an ultrasonic bath for about 10 seconds. Then 0.5 ml of the respective (buffer) solution is added, and the sample is again treated in the ultrasonic bath.
(Buffer) solutions employed:
pH 4: 1 liter of Millipore water is adjusted to pH 4.0 with 1 N hydrochloric acid;
pH 7.4: 90.0 g of sodium chloride, 13.61 g of potassium dihydrogen phosphate and 83.35 g of 1 N sodium hydroxide solution are made up to 1 liter with water; this solution is then further diluted 1:10 with Millipore water.
5 μl portions of the test solution are analyzed by HPLC for their content of unchanged test substance, and of active substance (A) produced, every hour over a period of 24 hours at 37° C. The percentage areas of the appropriate peaks are used for quantification.
HPLC method for Examples 41 and 44:
(§1) Agilent 1100 with DAD (G1315B), binary pump (G1312A), autosampler (G1329A), column oven (G1316A), thermostat (G1330B); column: Kromasil 100 C18, 250 mm×4 mm, 5 μm; column temperature: 30° C.; mobile phase A: water+5 ml of perchloric acid/liter, eluent B: acetonitrile; gradient: 0 min 90% A→5.0 min 40% A→18.0 min 10% A→19.0 min 10% A→21.0 min 90% A→23.0 min 90% A; flow rate: 2.0 ml/min; UV detection: 288 nm.
HPLC Method for Examples 50 and 59:
as §1, with “125” for “250”, “60% A→7.0 min 60% A→10.0” for “40% A→18.0”, “A→12.0” for “A→19.0”, “A→14.0” for “A→21.0”, “A→16.0” for “A→23.0”, “294” for “288”
HPLC Method for Example 54:
as §1, with “(G1314A),” for “(G1315B),”, “(G1330A);” for “(G1330B);”
The ratios of the peak areas (F) at the respective time points in relation to the peak areas at the starting time are shown in Table 2 for representative exemplary embodiments: […]

[4] = Stability in suspension (isopropanol, 7 days); assay type: physicochemical; conditions: room temperature, LC/MS
Experimental: c) Stability in Suspension and as Solid:
4.7-4.8 g of the test substance are suspended in 200 ml of isopropanol and stirred at room temperature for 7 days. The solid is filtered off and air-dried at room temperature for 3 days. LC/MS (Method 2) is then used to measure whether there has been a degradation of the test substance.

[5] = Stability as solid (90° C., 7 days); assay type: physicochemical; conditions: sealed vial, HPLC
Experimental: To assess the stability of the solids, 20 mg of the solids obtained in this manner are stored in a sealed Head-Space vial at 90° C. in a drying cabinet without vacuum for 7 days. HPLC is then used to measure whether there has been a degradation of the test substance.
HPLC Method for Measuring the Stability of the Solid of Example 63:
HPLC Method for Measuring the Stability of the Solid of Example 44: […]

[6] = i.v. pharmacokinetics in Wistar rats; assay type: in vivo; conditions: after i.v. administration
Experimental: e) i.v. Pharmacokinetics in Wistar Rats:
(§2) On the day before administration of the substance, a catheter for obtaining blood is implanted in the jugular vein of the experimental animals (male Wistar rats, body weight 200-250 g) under Isofluran® anesthesia.
(§3) On the day of the experiment, a defined dose of the test substance is administered as solution into the tail vein using a Hamilton® glass syringe (bolus administration, duration of administration<10 s). Blood samples (8-12 time points) are taken through the catheter sequentially over the course of 24 h after administration of the substance. Plasma is obtained by centrifuging the samples in heparinized tubes. Acetonitrile is added to a defined plasma volume per time point to precipitate proteins. After centrifugation, test substance and, where appropriate, known cleavage products of the test substance in the supernatant are determined quantitatively using a suitable LC/MS-MS method.
The measured plasma concentrations are used to calculate pharmacokinetic parameters of the test substance and of the active ingredient compound (A) liberated therefrom, such as AUC, Cmax, T1/2 (half-life) and CL (clearance).

[7] = Oral pharmacokinetics in Wistar rats; assay type: in vivo; conditions: after oral administration
Experimental: f) Oral Pharmacokinetics in Wistar Rats:
as §2
as §3, with “stomach by gavage.” for “tail vein using a Hamilton® glass syringe (bolus administration, duration of administration<10 s).”
The measured plasma concentrations are used to calculate pharmacokinetic parameters of the test substance and of the active ingredient compound (A) liberated therefrom, such as AUC, Cmax and T1/2 (half-life).

Row | Structure (SMILES) | Heart rate reduction [1] [%] | solubility at 24 h [2] [µg/mL] | % test substance after 4 h (F(t = 4 h) × 100/F(t = 0 h)) ([3]; pH 4, 37° C.) [%] | % test substance after 24 h (F(t = 24 h) × 100/F(t = 0 h)) ([3]; pH 4, 37° C.) [%] | % test substance after 4 h (F(t = 4 h) × 100/F(t = 0 h)) ([3]; pH 7.4, 37° C.) [%] | % test substance after 24 h (F(t = 24 h) × 100/F(t = 0 h)) ([3]; pH 7.4, 37° C.) [%] | Degradation of the test substance in suspension [4] | Degradation of the solid [5] | Detectability of the administered substance in plasma [6] | Detectability of the administered substance in plasma [7]
1 | C[C@H](N)C(=O)N[C@@H](C)C(=O)OCCOc1ccc(-c2c(C#N)c(SCc3csc(-c4ccc(Cl)cc4)n3)nc(N3CCCC3)c2C#N)cc1 [Example 44, 2-{4-(2-({(2-(4-Chlorophenyl)-1,3-thiazol-4-yl)methyl}sulfanyl)-3,5-dicyano-6-(pyrrolidin-1-yl)pyridin-4-yl)phenoxy}ethyl L-alanyl-L-alaninate hydrochloride] | −20 | 410 | 99 | 99 | 78 | 26 | no degradation | no degradation | no longer detectable in plasma even at the first measurement point | no longer detectable in plasma even at the first measurement point
2 | C[C@H](NC(=O)[C@@H](N)CCCCN)C(=O)OCCOc1ccc(-c2c(C#N)c(SCc3csc(-c4ccc(Cl)cc4)n3)nc(N3CCCC3)c2C#N)cc1 [Example 41, 2-{4-(2-({(2-(4-Chlorophenyl)-1,3-thiazol-4-ylmethyl}sulfanyl)-3,5-dicyano-6-(pyrrolidin-1-yl)pyridin-4-yl)phenoxy}ethyl L-lysyl-L-alaninatedihydrochloride] | −5 | 650 | 97 | 99 | 37 | 0 |  |  | no longer detectable in plasma even at the first measurement point | no longer detectable in plasma even at the first measurement point
3 | CC[C@H](C)[C@H](N)C(=O)N[C@@H](C)C(=O)OCCOc1ccc(-c2c(C#N)c(SCc3csc(-c4ccc(Cl)cc4)n3)nc(N3CCCC3)c2C#N)cc1 [Example 63, 2-{4-(2-({(2-(4-Chlorophenyl)-1,3-thiazol-4-yl)methyl}sulfanyl)-3,5-dicyano-6-(pyrrolidin-1-yl)pyridin-4-yl)phenoxy}ethyl L-isoleucyl-L-alaninate hydrochloride] | −20 |  | 98 | 98 | 93 | 67 | no degradation | no degradation | no longer detectable in plasma even at the first measurement point | no longer detectable in plasma even at the first measurement point
